One assay concerns Fcγ1. Description: Repeated FcγR reverse ELISA with SEQ ID NO:20 (Table 3). It counts as binding. (In an ELISA, binding on a coated surface is turned into a signal by an enzyme label.)
The subject of assay [1] is Fc receptor (FcγI, FcγIIa/FcγIIb, and FcγIII). Kind of assay: FcγR reverse ELISA, overall statements on FcR binding to PAP immune complexes. The protocol:
(§1) Once the reverse ELISA protocol was established using the C1q assay, the assay was redesigned using FcγIIa, FcγIIb and FcγIII in place of C1q. Highly purified FcγIIa, FcγIIb and FcγIII (R&D Systems, Minneapolis, Minn.) were immunoadsorbed onto plastic microwells. After optimizing the FcγR reverse ELISA system, simple competitive inhibition experiments using polypeptides provided herein were conducted to investigate their ability to inhibit binding of immune complexes to purified FcγR.
(§2) Falcon microtiter plates were coated with 1:10 dilutions of highly purified FcγIIa, FcγIIb and FcγIII and incubated for 24 hours. The plates were washed and then blocked with 5×BSA blocking solution (Alpha Diagnostic International, San Antonio, Tex.) for 24 hours. PAP immune complexes were formed as described in Example 1. PAP (100 μl) were pre-incubated with 100 μl of peptide for one hour. PAP/peptide mixtures were added to the FcγR coated plates and incubated for one hour. After washing, plates were incubated with ABTS substrate (Quidel Corp.) for 15 minutes and read at 405 nm.
Experiments with SEQ ID NO:20 were repeated. Costar microtiter plates were coated with 1:10 dilutions of highly purified FcγIIa (His 131 allele aka […]), FcγIIb and FcγIIIb and incubated for 24 hours. […] After washing, plates were incubated with ABTS substrate for 15 minutes and read at 405 nm.

In a further assay the test system is FCγIIb/c. Description: Repeated FcγR reverse ELISA with SEQ ID NO:20 (Table 3). Format: binding. How it is done: (§3) Experiments with SEQ ID NO:20 were repeated. Costar microtiter plates were coated with 1:10 dilutions of highly purified FcγIIa (His 131 allele aka […]), FcγIIb and FcγIIIb and incubated for 24 hours. The plates were washed and then blocked with 10 mg/ml BSA blocking solution for 24 hours. PAP immune complexes were formed as described in Example 2. PAP (100 μl) were pre-incubated with 100 μl of peptide for one hour. PAP/peptide mixtures were added to the FcγR coated plates and incubated for one hour. After washing, plates were incubated with ABTS substrate for 15 minutes and read at 405 nm.

The next assay has as its system FcγIIa (His 131 allele). The description is as above. Format: binding. The note with it: H131 allele. The protocol:
as §3

Another assay deals with FCγIIIb (NA2). Described as above. It counts as binding. How it is done: as §3
In the next assay the test system is FcγIIb. Description: FcγR reverse ELISA: inhibition of PAP immune complex binding (Table 2). The following applies: PAP/peptide mixture on FcγR coated plates; positive control 1.394.
Text: (§4) For this reason, a “reverse ELISA” technique has been used to assess binding of the Fc region to ligands that bind to immune complexed IgG Fc. In a reverse ELISA, the enzyme (e.g., HRP) is not covalently conjugated to the Fc portion of the secondary antibody. Rather, a preformed immune complex of peroxidase-rabbit (or mouse) anti-peroxidase IgG (“PAP” complex) is used. […] In the reverse ELISA system, an Fc CH2-CH3 cleft binding ligand (e.g., purified human C1q) was bound to microwell plates. In the absence of competitor, PAP complexes bound to the immobilized ligand and the reaction between HRP and its substrate produces a signal. This signal was reduced by polypeptides and compounds that inhibited PAP binding to the immobilized ligand.
as §1, §2

Another assay concerns FcγIIIa. Described as above. The note with it: PAP/peptide mixture on FcγR coated plates; positive control 1.588.
Text: as §4, §1, §2

In another assay the test system is FcγIIa (R131 allele). Described as above. The note with it: PAP/peptide mixture on FcγR coated plates; positive control 1.599.
Text: as §4, §1, §2

A further assay has as its system human C1q. Kind of assay: Reverse ELISA: inhibition of PAP immune complex binding to C1q coated plates.
Text: as §4
PAP complexes were formed mixing 2 μl of rabbit anti-peroxidase (Sigma Chemicals, St. Louis, Mo.; Cat. No. P7899) with 50 μl of peroxidase (Sigma-Aldrich, Cat. No. P6782) in 1 ml distilled water. PAP (100 μl) were pre-incubated with 100 μl of peptide for one hour, 100 μl were pre-incubated with 100 μl of peptide or human C1q (Quidel Corp., San Diego, Calif.) for one hour. The C1q/PAP and peptide/PAP mixtures (100 μl) were incubated with C1q coated plates for 30 minutes. After washing, plates were incubated with ATBS (Quidel Corp.) for 15 minutes and read at 405 nm.

With “Ala-Pro-Pro-Asp-Cys-Ala-Trp-His-Leu-Gly-Glu-Leu-Val-Trp-Cys-Thr (APPDCAWHLGELVWCT) [SEQ ID NO:20]”, the “Fcγ1 (read at 405 nm)” value in the assay on Fcγ1 (repeat experiment, positive control 2.333) is on record as 0.264. The “% inhibition of IC binding, Fcγ1” value in the assay on Fcγ1 (versus positive control) is given as 89%. The “Overall inhibition of FcR binding to PAP (ranking in words)” value in [1] (summary of Table 2: FcγIIa, FcγIIb, FcγIIIa) is reported as “greatest overall inhibition of FcR binding to PAP”. For the same substance, in [1] (summary of Table 3), the “Inhibition of Fc receptor binding to soluble PAP immune complexes” value is “inhibited binding of all three major classes of Fc receptor”. Further, the “FCγIIb/c (read at 405 nm)” value with FCγIIb/c (repeat experiment, positive control 2.218) stood at 0.266. For the same substance, the “% inhibition of IC binding, FCγIIb/c” value in the assay on FCγIIb/c (versus positive control) amounted to 88%. In the assay with FcγIIa (His 131 allele) (repeat experiment, positive control 3.509), the “FCγIIa* (read at 405 nm)” value stood at 0.209. For the same substance, the “% inhibition of IC binding, FCγIIa*” value with FcγIIa (His 131 allele) (versus positive control) came to 94%. Also, the “FCγIIIb (NA2) (read at 405 nm)” value with FCγIIIb (NA2) (repeat experiment, positive control 3.060) was 0.266. The “% inhibition of IC binding, FCγIIIb (NA2)” value in the assay on FCγIIIb (NA2) (versus positive control) came to 91%. Also, the “OD405 FcγIIb” value with FcγIIb is reported as 0.496. Besides, the “OD405 FcγIIIa” value with FcγIIIa is 0.670. Besides, in the assay on FcγIIa (R131 allele), the “OD405 FcγIIa (R131 allele)” value is 0.509. Moreover, the “OD 405 nm” value with human C1q (PAP pre-incubated with peptide or C1q one hour, C1q coated plates, lower OD = more inhibition, positive control 2.355) is 0.389. Moreover, the “Inhibition of C1q binding (ranking in words)” value with human C1q (summary of Table 1) is “greatest inhibition of C1q binding”.

The values are drawn from patent US20120021988A1, “METHODS FOR TREATING IMMUNE THROMBOCYTOPENIA” (priority 2007, published 2012).
